Literature values in patent US11667615B2, “Certain (2S)-N-[(1S)-1-cyano-2-phenylethyl]-1,4-oxazepane-2-carboxamides as dipeptidyl peptidase 1 inhibitors” (AstraZeneca AB, priority 2014, dated 2023).

Settings: QWBA studies; concomitant ultra-structural changes by electron microscopy

retention in the aorta: retained selectively in the aorta
SMILES: CC(c1ccc(Cl)c(Cl)c1)N1N=C(N)CC1=O (stereo not shown) [muzolimine]
